Results as given in patent US8592438B2, “Plant disease control composition” (Sumitomo Chemical Intellectual Property Service, Ltd, priority 2008, dated 2013).

Legend:
[1] = system: cucumber Gray mold fungus; experiment: Test Example 1: cucumber Gray mold control test, foliar spray on potted cucumber; type: in vivo; details: spray on cucumber stems and leaves, 6 days at 12° C. humid
Method: A plastic pot was stuffed with sand loam, and cucumber was sowed, and grown for 12 days in a greenhouse. A compound (Ia), compound (Ib) and compound (II) were prepared into flowable formulations according to the following preparation method, and the resultant flowable formulations were diluted with water, then, mixed to prepare a treatment solution containing the compound (Ia) and compound (II) of prescribed concentrations, and a treatment solution containing the compound (Ib) and compound (II) of prescribed concentrations. The treatment solutions were sprayed on stems and leaves so as to fully adhere to the leaf surfaces of the cucumber. After spraying, the plant was air-dried, and a PDA medium containing spores of cucumber Gray mold fungus was placed on the cucumber leaf surface. Thereafter, it was left for 6 days at 12° C. under humid condition, then, a control effect thereof was checked.
Further, wettable powders of the compound (Ia), compound (Ib) and compound (II) each were diluted with water to prescribed concentrations to prepare respective treatment solutions, which were subjected to a parallel test.
In checking, evaluation indices described later were used. According to formula 1, the pathogenesis degree was calculated, and based on the pathogenesis degree, a controlling value (%) was calculated using formula 2.
(§1) A compound (Ia), compound (Ib) or compound (II) (10 parts), a mixture (35 parts) of white carbon and polyoxyethylene alkyl ether sulfate ammonium salt (weight ratio 1:1) and water (55 parts) were mixed, and finely ground by a wet grinding method to obtain respective flowable formulations.
• 0: disease spot diameter, 0 mm • 1: disease spot diameter, 1 to 5 mm • 2: disease spot diameter, 5 to 10 mm • 3: disease spot diameter, 10 to 15 mm • 4: disease spot diameter, 15 to 20 mm • 5: disease spot diameter, over 20 mm pathogenesis degree=Σ(evaluation index of checked leaf)×100/(5×number of checked leaves) Formula 1 controlling value (%)=100×(A−B)/A Formula 2 • A: pathogenesis degree of plant in non-treated district • B: pathogenesis degree of plant in treated district

[2] = system: cucumber Gray mold fungus; experiment: Test Example 2: cucumber Gray mold control test, foliar spray on potted cucumber, disease spot diameter indices; type: in vivo; details: sum over 8 cucumber leaves, index 0 (spot 0 mm) to 5 (over 20 mm), 12° C. humid
Method: A plastic pot was stuffed with sand loam, and cucumber was sowed, and grown for 12 days in a greenhouse. A compound (Ia), compound (Ib), compound (III) and compound (IV) were prepared into flowable formulations according to the following preparation method, and the resultant flowable formulations were diluted with water, then, mixed to prepare a treatment solution containing the compound (Ia) and compound (III) of prescribed concentrations, a treatment solution containing the compound (Ib) and compound (III) of prescribed concentrations, a treatment solution containing the compound (Ia) and compound (IV) of prescribed concentrations, and a treatment solution containing the compound (Ib) and compound (IV) of prescribed concentrations. The treatment solutions were sprayed on stems and leaves so as to fully adhere to the leaf surfaces of the cucumber. After spraying, the plant was air-dried, and a PDA medium containing spores of cucumber Gray mold fungus was placed on the cucumber leaf surface. Thereafter, it was left under humid condition at 12° C., then, a control effect thereof was checked.
Further, wettable powders of the compound (Ia), compound (Ib), compound (III) and compound (IV) each were diluted with water to prescribed concentrations to prepare respective treatment solutions, which were subjected to a parallel test.
In checking of the control effect, the disease spot diameter was measured for 8 leaves of cucumber. A case of a disease spot diameter of 0 mm was evaluated as a controlling index of 0, a case of a disease spot diameter of 1 to 5 mm was evaluated as a controlling index of 1, a case of a disease spot diameter of 5 to 10 mm was evaluated as a controlling index of 2, a case of a disease spot diameter of 10 to 15 mm was evaluated as a controlling index of 3, a case of a disease spot diameter of 15 to 20 mm was evaluated as a controlling index of 4, and a case of a disease spot diameter of over 20 mm was evaluated as a controlling index of 5.
as §1, with “(Ib), compound (III)” for “(Ib)”, “(IV)” for “(II)”

[3] = active ingredient concentration 2.5 ppm
[4] = active ingredient concentration 10 ppm
[5] = active ingredient concentration 20 ppm
[6] = active ingredient concentration 5 ppm
[7] = active ingredient concentration 40 ppm

Structure (SMILES)	controlling value [1, 3] [%]	controlling value [1, 4] [%]	controlling value [1, 5] [%]	sum of controlling indices [2, 3]	sum of controlling indices [2, 6]	sum of controlling indices [2, 4]	sum of controlling indices [2, 5]	controlling value [1, 6] [%]	controlling value [1, 7] [%]	sum of controlling indices [2, 7]
CNC(=O)[C@H](OC)c1ccccc1COc1cc(C)ccc1C [compound (Ia)]	48	60	68	27	25	24	23	–	–	–
Cc1cc(C2CC2)nc(Nc2ccccc2)n1 [compound (IV), 4-cyclopropyl-6-methyl-N-phenyl-2-pyrimidinamine, reference compound]	–	–	–	24	9	–	–	–	–	–
CNC(=O)C(OC)c1ccccc1COc1cc(C)ccc1C (stereo not drawn) [compound (Ib)]	–	–	60	–	25	26	24	48	68	24
Cc1cc(C)nc(Nc2ccccc2)n1 [compound (II), 4,6-dimethyl-N-phenyl-2-pyrimidinamine, reference compound]	–	30	–	–	–	–	–	–	–	–
CC#Cc1cc(C)nc(Nc2ccccc2)n1 [compound (III), 4-methyl-N-phenyl-6-(1-propynyl)-2-pyrimidinamine, reference compound]	–	–	–	–	10	–	–	–	–	–
